{
  "source": "patent US12098147B2",
  "about": "“Compound having novel structure, complex comprising same, anti-cancer pharmaceutical composition, and anti-cancer drug” (ETNOVA THERAPEUTICS CORP., priority 2018, dated 2024)",
  "key": {"HT-29 cell line": {"tested_on": "HT-29 cell line", "assay": "CCK-8 cell viability, HT-29 colorectal cancer cell line", "assay_type": "cell-based, human", "conditions": "serum-free medium, 24 hours, mean ± SD of 2 to 3 experiments", "experimental": "(§1) To identify the anticancer effect of the compounds L1, L2, and L3 according to Examples 1 to 3 of the present disclosure, and the complexes L1Pt, L2Pt, and L3Pt according to Examples 4 to 6 of the disclosure, the cell viability analysis of cancer cells using CCK-8 was performed on several cancer cell lines (colorectal cancer cell line (HT-29 cell line), breast cancer cell line (MCF-7 and MDA-MB-231), cervical cancer cell line (HeLa cell line), liver cancer cell line (Huh-7 and HepG2), brain glioma cell line (C6), lung cancer (A549), prostate cancer (PC3), kidney cancer (Caki-2), normal liver cell line (AML-12), embryonic kidney cell line (HEK-293), neural stem cell line (NE-4C) and normal breast epithelial cell line (MCF10a)).\n(§2) CCK-8 (Cell counting kit-8) is analyzed using a highly water-soluble tetrazolium salt-[…]. [2-(2-methoxy-4-nitrophenyl)-3-(4-nitrophenyl)(2,4-disulfophenyl)-2H-tetrazolium, monosodium salt] is reduced under the presence of an electron medium to produces a water-soluble formazan orange dye. The amount of the formazan dye produced by dehydrogenase in a cell is directly proportional to the number of living cells.\n(§3) In an experimental method for evaluating the properties of the compounds according to the present disclosure, various cancer cell lines derived from humans and normal cell lines of each tissue derived from humans and mice were used in this experiment. A complete growth medium corresponding to each cell line and having 10% of heat-inactivated FBS added thereto was used to maintain corresponding cells. The maintained cells were suspended in a volume of 200 μl at a density of 1 or 1.5×10^4 cells and planted in each well of a 96 well plate. The cells were attached to a 37° C. and 5% CO2 incubator for more than 14 hours, and we waited for a stable state. The next day, we removed the medium from the well. 100 μl of serum-free medium containing drugs of various concentrations (0 (control), 2.5, 5, 10, 20, 30, 40, 50, 100, 200 μM) was added to each well and the cells was cultured therein. On 22 hours after the incubation, 10 μl of CCK-8 solution was added to each well, followed by incubation for 2 hours. A plate on which the culture was completed was measured in terms of absorbance at 450 nm using a microplate reader.\n(§4) Cell Viability Calculation:\n(§5) • A: Absorbance value measured in a control well • B: Absorbance value measured in a well containing the drug\n(§6) In Table 1 below, each compound was applied to the cells at 0, 2.5, 5, 10, 20, 30, 40, 50, 100, and 200 μM, and the cells was cultured in a medium free of serum for 24 hours. The measured absorbance value was converted to a % value based on a value of 0, such that a IC50 value was calculated. Each experiment was performed 2 to 3 times and a standard deviation value was obtained."}, "MCF-7": {"tested_on": "MCF-7", "assay": "CCK-8 cell viability, MCF-7 breast cancer cell line", "assay_type": "cell-based, human", "conditions": "serum-free medium, 24 hours, mean ± SD of 2 to 3 experiments", "experimental": "as §1, §2, §3, §4, §5, §6"}, "MDA-MB-231": {"tested_on": "MDA-MB-231", "assay": "CCK-8 cell viability, MDA-MB-231 breast cancer cell line", "assay_type": "cell-based, human", "conditions": "serum-free medium, 24 hours, mean ± SD of 2 to 3 experiments", "experimental": "as §1, §2, §3, §4, §5, §6"}, "MCF10a": {"tested_on": "MCF10a", "assay": "CCK-8 cell viability, MCF10a normal breast epithelial cell line", "assay_type": "cell-based", "conditions": "serum-free medium, 24 hours, CCK-8; mean ± SD of 2 to 3 experiments", "experimental": "as §1, §2, §3, §4, §5, §6"}, "HeLa cell line": {"tested_on": "HeLa cell line", "assay": "CCK-8 cell viability, HeLa cervical cancer cell line", "assay_type": "cell-based, human", "conditions": "serum-free medium, 24 hours, mean ± SD of 2 to 3 experiments", "experimental": "as §1, §2, §3, §4, §5, §6"}, "Huh-7": {"tested_on": "Huh-7", "assay": "CCK-8 cell viability, Huh-7 liver cancer cell line", "assay_type": "cell-based, human", "conditions": "serum-free medium, 24 hours, mean ± SD of 2 to 3 experiments", "experimental": "as §1, §2, §3, §4, §5, §6"}, "HepG2": {"tested_on": "HepG2", "assay": "CCK-8 cell viability, HepG2 liver cancer cell line", "assay_type": "cell-based, human", "conditions": "serum-free medium, 24 hours, mean ± SD of 2 to 3 experiments", "experimental": "as §1, §2, §3, §4, §5, §6"}, "AML12": {"tested_on": "AML12", "assay": "CCK-8 cell viability, AML-12 normal liver cell line", "assay_type": "cell-based", "conditions": "serum-free medium, 24 hours, CCK-8; mean ± SD of 2 to 3 experiments", "experimental": "as §2, §3, §4, §5, §6"}, "C6": {"tested_on": "C6", "assay": "CCK-8 cell viability, C6 brain glioma cell line", "assay_type": "cell-based, human", "conditions": "serum-free medium, 24 hours, mean ± SD of 2 to 3 experiments", "experimental": "as §1, §2, §3, §4, §5, §6"}, "NE-4C": {"tested_on": "NE-4C", "assay": "CCK-8 cell viability, NE-4C neural stem cell line", "assay_type": "cell-based", "conditions": "serum-free medium, 24 hours, CCK-8; mean ± SD of 2 to 3 experiments; read-out: IC50 NC-4C (Neural stem cell)", "experimental": "as §2, §3, §4, §5, §6"}, "A549": {"tested_on": "A549", "assay": "CCK-8 cell viability, A549 lung cancer cell line", "assay_type": "cell-based, human", "conditions": "serum-free medium, 24 hours, mean ± SD of 2 to 3 experiments", "experimental": "as §1, §2, §3, §4, §5, §6"}, "PC3": {"tested_on": "PC3", "assay": "CCK-8 cell viability, PC3 prostate cancer cell line", "assay_type": "cell-based, human", "conditions": "serum-free medium, 24 hours, mean ± SD of 2 to 3 experiments", "experimental": "as §1, §2, §3, §4, §5, §6"}, "Caki-2": {"tested_on": "Caki-2", "assay": "CCK-8 cell viability, Caki-2 kidney cancer cell line", "assay_type": "cell-based, human", "conditions": "serum-free medium, 24 hours, mean ± SD of 2 to 3 experiments", "experimental": "as §1, §2, §3, §4, §5, §6"}, "HEK-293": {"tested_on": "HEK-293", "assay": "CCK-8 cell viability, HEK-293 embryonic kidney cell line", "assay_type": "cell-based", "conditions": "serum-free medium, 24 hours, mean ± SD of 2 to 3 experiments, read-out: IC50 HEK293 (embryonic kidney)", "experimental": "as §1, §2, §3, §4, §5, §6"}, "[1]": {"tested_on": "several cancer cell lines", "assay": "CCK-8 cell viability, panel of cancer cell lines compared in words (FIGS. 3a to 3e)", "assay_type": "cell-based, human", "conditions": "Log IC50, FIGS. 3a to 3e; no comparator", "experimental": "as §1, §2, §3\nFurther, FIGS. 3a to 3e show a graph in which a IC50 value which is obtained based on 2 to 3 times executions of the cell viability analysis is converted to a Log IC50 value. […] The comparative reliability values for BTA were expressed as […], ##p<0.01, and ## #p<0.001. A red line represents the value of cisplatin. A blue line represents the value of BTA."}},
  "data": [
    {"substance": "benzothiazole aniline [BTA, reference compound]", "values": [
      {"measurement": "IC50", "setting": "HT-29 cell line", "result": "275 ± 5.03", "unit": "µM"},
      {"measurement": "IC50", "setting": "MCF-7", "result": "104 ± 28.6", "unit": "µM"},
      {"measurement": "IC50", "setting": "MDA-MB-231", "result": "> 500", "unit": "µM"},
      {"measurement": "IC50", "setting": "MCF10a", "result": "401 ± 136", "unit": "µM"},
      {"measurement": "IC50", "setting": "HeLa cell line", "result": "76.4 ± 23.4", "unit": "µM"},
      {"measurement": "IC50", "setting": "Huh-7", "result": "406 ± 35.7", "unit": "µM"},
      {"measurement": "IC50", "setting": "HepG2", "result": "52 ± 5.71", "unit": "µM"},
      {"measurement": "IC50", "setting": "AML12", "result": "> 500", "unit": "µM"},
      {"measurement": "IC50", "setting": "C6", "result": "425 ± 47.8", "unit": "µM"},
      {"measurement": "IC50", "setting": "NE-4C", "result": "60.9 ± 2.93", "unit": "µM"},
      {"measurement": "IC50", "setting": "A549", "result": "> 500", "unit": "µM"},
      {"measurement": "IC50", "setting": "PC3", "result": "182 ± 7.79", "unit": "µM"},
      {"measurement": "IC50", "setting": "Caki-2", "result": "463 ± 44.1", "unit": "µM"},
      {"measurement": "IC50", "setting": "HEK-293", "result": "> 500", "unit": "µM"},
      {"measurement": "effect on cancer cell lines, in words", "setting": "[1]", "result": "did not have greater effect on colorectal cancer, brain glioma, and lung cancer"}
    ]}
  ]
}
